From the supplement of paper PMC10307832

Key:
Assay in all cases: relative viability (nuclei count vs DMSO), 5 days (fraction); higher = more cells survive
Dabrafenib + Crizotinib = compound: CC(C)(C)c1nc(-c2cccc(NS(=O)(=O)c3c(F)cccc3F)c2F)c(-c2ccnc(N)n2)s1 [Dabrafenib] + C[C@@H](Oc1cc(-c2cnn(C3CCNCC3)c2)cnc1N)c1c(Cl)ccc(F)c1Cl [Crizotinib] (partner 1 µM)
Summary of the method: (§1)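 Lung cancer cell lines in 1536-well plates got either a single drug or a fixed anchor-drug dose together with five library-drug doses (not always all listed) in √10 steps, by pin tool, on the day after seeding. Nuclei were counted after 5 days, and relative viability is the treated-to-vehicle ratio of nuclei counts. Values are medians of duplicate plates.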

VX-702 + Dasatinib = compound: NC(=O)c1ccc(N(C(N)=O)c2c(F)cccc2F)nc1-c1ccc(F)cc1F [VX-702] + Cc1nc(Nc2ncc(C(=O)Nc3c(C)cccc3Cl)s2)cc(N2CCN(CCO)CC2)n1 [Dasatinib] (partner 0.075 µM)
Summary of the method: as §1

VX-702 + Navitoclax = compound: NC(=O)c1ccc(N(C(N)=O)c2c(F)cccc2F)nc1-c1ccc(F)cc1F [VX-702] + CC1(C)CCC(c2ccc(Cl)cc2)=C(CN2CCN(c3ccc(C(=O)NS(=O)(=O)c4ccc(N[C@H](CCN5CCOCC5)CSc5ccccc5)c(S(=O)(=O)C(F)(F)F)c4)cc3)CC2)C1 [Navitoclax] (partner 0.5 µM)
Summary of the method: as §1

VX-702 + Luminespib = compound: NC(=O)c1ccc(N(C(N)=O)c2c(F)cccc2F)nc1-c1ccc(F)cc1F [VX-702] + CCNC(=O)c1noc(-c2cc(C(C)C)c(O)cc2O)c1-c1ccc(CN2CCOCC2)cc1 [Luminespib] (partner 0.01 µM)
Summary of the method: as §1

Row | Cell Line | relative viability (Dabrafenib + Crizotinib; first compound 0.009487 µM) | relative viability (Dabrafenib + Crizotinib; first compound 0.03 µM) | relative viability (Dabrafenib + Crizotinib; first compound 0.09487 µM) | relative viability (Dabrafenib + Crizotinib; first compound 0.3 µM) | relative viability (VX-702 + Dasatinib; first compound 0.02 µM) | relative viability (VX-702 + Dasatinib; first compound 0.2 µM) | relative viability (VX-702 + Dasatinib; first compound 0.6325 µM) | relative viability (VX-702 + Dasatinib; first compound 2 µM) | relative viability (VX-702 + Navitoclax; first compound 0.02 µM) | relative viability (VX-702 + Navitoclax; first compound 0.2 µM) | relative viability (VX-702 + Navitoclax; first compound 0.6325 µM) | relative viability (VX-702 + Navitoclax; first compound 2 µM) | relative viability (VX-702 + Luminespib; first compound 0.02 µM) | relative viability (VX-702 + Luminespib; first compound 0.2 µM) | relative viability (VX-702 + Luminespib; first compound 0.6325 µM) | relative viability (VX-702 + Luminespib; first compound 2 µM) | relative viability (Dabrafenib + Crizotinib; first compound 0.003 µM)
1 | EPLC-272H | 1.17 | 0.784 | 0.976 | 0.83 | 0.359 | 0.332 | 0.362 | 0.377 | 1.23 | 1.08 | 1.05 | 1.17 | 0.344 | 0.694 | 0.352 | 0.272 | –
2 | NCI-H1734 | 0.702 | 0.475 | 0.696 | 0.687 | 0.51 | 0.413 | 0.445 | 0.371 | 0.814 | 0.695 | 0.685 | 0.743 | 0.225 | 0.228 | 0.173 | 0.203 | –
3 | NCI-H2405 | 0.78 | 0.52 | 0.772 | 0.82 | 0.259 | 0.207 | 0.228 | 0.193 | 0.813 | 0.773 | 0.89 | 1.2 | 0.659 | 0.641 | 0.799 | 0.73 | –
4 | LK-2 | 0.223 | – | 0.254 | 0.197 | 0.269 | 0.329 | 0.219 | 0.288 | 0.834 | 0.811 | 0.64 | 0.781 | 0.199 | 0.175 | 0.175 | 0.178 | 0.211
5 | NCI-H1666 | – | 1.09 | 0.87 | 1.17 | 0.765 | – | 0.876 | 0.641 | 0.883 | 0.884 | 0.843 | 1.02 | 0.954 | – | 1.07 | 1.01 | 0.988
6 | CAL-12T | 0.752 | 0.728 | 0.582 | 0.791 | 0.409 | 0.539 | 0.273 | 0.463 | 1.22 | 1.18 | 1.3 | 1.35 | 0.565 | 0.574 | 0.318 | 0.363 | 0.502
7 | NCI-H2347 | 0.698 | 0.67 | 0.674 | 0.62 | 0.325 | – | 0.277 | 0.294 | 0.887 | 0.712 | 0.756 | 0.792 | 0.446 | – | 0.909 | 0.552 | 0.441
8 | NCI-H1944 | 1.09 | 1.05 | 0.971 | 1.03 | 0.226 | 0.212 | 0.221 | 0.169 | 1.04 | 1.03 | 1.15 | 0.973 | 0.73 | 0.713 | 0.771 | 0.718 | 1.13
9 | A-427 | 0.883 | 0.772 | 0.87 | 1.03 | 0.689 | 0.698 | 0.796 | 0.584 | 0.877 | 0.919 | 0.905 | 0.962 | 0.715 | 0.919 | 0.823 | 0.774 | –
10 | NCI-H520 | 0.752 | 0.732 | 0.582 | 0.664 | 0.2 | 0.194 | 0.176 | 0.24 | 1 | 0.985 | 0.953 | 1.1 | 0.189 | 0.245 | 0.221 | 0.239 | 0.756
